Like-named read-outs stand apart in the source and are kept apart here.
Experiments:
[1] = system: E. coli; assay: microbe, parasite or virus in culture; assay type: cell-based, Escherichia coli; conditions: for MIC: Escherichia coli, 18 h, read-out: MIC, E. coli, MHB−
[2] = system: S. aureus; assay: FIC index of pentamidine combined with various salts (checkerboard); assay type: cell-based, Staphylococcus aureus; conditions: combination of pentamidine isethionate with each salt; FICI≤0.5 synergy, 1-2 additivity, >4 antagonism
Procedure: (§1) In the following experiments, bacterial cells were cultured in 96-well microtiter plates in cation-adjusted Mueller-Hinton Broth (MHB) for 18 h at 37° C. The main strains used were E. coli (K-12 BW25113) (placed in stationary incubator) and S. aureus (Newman Strain) (incubated at 250 r.p.m). Knockout strains (ΔtolcC and ΔychM) were used from the Keio knockout collection (Baba et al., Construction of Escherichia coli K-12 in-frame, single-gene knockout mutants: the Keio collection. Mol Syst Biol 2, 2006 0008, doi:10.1038/msb4100050 (2006)). For MIC determination and checkerboard analyses, Clinical & Laboratory Standards Institute (CLSI) protocol was used. […] DiSC3 loading of S. aureus cells was performed as previously described (Farha et al., Collapsing the proton motive force to identify synergistic combinations against Staphylococcus aureus. Chemistry & biology 20, 1168-1178, doi:10.1016/j.chembiol.2013.07.006 (2013)). CCCP concentration of 20 μM was used. pH adjustments were made by addition of HCl or NaOH. INT assay and ATP bioluminescence assays were performed as previously described (Farha et al., Collapsing the proton motive force to identify synergistic combinations against Staphylococcus aureus. Chemistry & biology 20, 1168-1178, doi:10.1016/j.chembiol.2013.07.006 (2013)). For chemical-genomic studies, the Keio library was grown overnight in cation-adjusted MHB broth, in 384-well plates. From these, treatment plates (25 mM sodium bicarbonate, or a sterile water control) were inoculated and grown for 15 hours at 37° C., in a stationary incubator. Data was normalized according to Mangat et al (Mangat et al., Rank ordering plate data facilitates data visualization and normalization in high-throughput screening. J Biomol Screen 19, 1314-1320, doi:10.1177/1087057114534298 (2014)), with gene products and GO terms mined from EcoCyc. The GFP promoter library (Keseler et al., EcoCyc: fusing model organism databases with systems biology. Nucleic Acids Res 41, D605-612, doi:10.1093/nar/gks1027 (2013)) was grown for 18 hours at ambient temperature with the same inoculation strategy as with the Keio collection. The analysis pipeline of Zaslaver et al (Zaslaver et al., A comprehensive library of fluorescent transcriptional reporters for Escherichia coli. Nat Methods 3, 623-628, doi:10.1038/nmeth895 (2006)) was used to generate maps of promoter activity, from which lists of promoters with increased or decreased activity were compiled.

[3] = system: E. coli; assay: Checkerboard microdilution with sodium bicarbonate against E. coli; assay type: cell-based, Escherichia coli
Procedure: as §1
(§2) The effect of sodium bicarbonate on the activity of various antibacterial agents was investigated. Clinical isolates of various bacteria were obtained from the American Type Culture Collection (“ATCC”) and the International Health Management Associates (“IHMA”). Fractional inhibitory concentration indices (FICIs) were determined by setting up standard checkerboard broth microdilution assays in 96-well microtiter plates with serially diluted 8 (or 10) concentrations of each drug (sodium bicarbonate and the antibacterial agent). The protocol for checkerboard analyses was based on the CLSI guidelines. Plates were incubated at 37° C. for 18 hours, and optical density was read at 600 nm. At least 3 replicates were done for each query compound.
(§3) The FIC index (FICI) is the sum of the two FICs. Chemical-chemical interactions with ΣFIC of less or equal to 0.5 were deemed synergistic.
(§4) As validation, three of the antibiotic agents were further tested with checkerboard analyses. Checkerboard broth microdilution assays were set up in 96-well microtiter plates with serially diluted 8 (or 10) concentrations of each compound (sodium bicarbonate and the antibiotic). The protocol for checkerboard analyses was based on the CLSI guidelines. Plates were incubated at 37° C. for 18 hours, and optical density was read at 600 nm. At least 3 replicates were done for each query compound.

[4] = system: S. aureus; assay: microbe, parasite or virus in culture; conditions: for MIC: Staphylococcus aureus, 18 h, read-out: MIC, S. aureus, MHB−
[5] = system: S. aureus; assay: Checkerboard microdilution with sodium bicarbonate against S. aureus; assay type: cell-based, Staphylococcus aureus
Procedure: as §1, §2, §3, §4

[6] = system: S. aureus; assay: Checkerboard microdilution with nigericin; assay type: cell-based, Staphylococcus aureus
Source text: Shown are microdilution checkerboard analyses, where the extent of inhibition is shown as a heat plot, such that the darkest checkerboard square represents full bacterial growth.

[7] = system: methicillin-resistant Staphylococcus aureus (MRSA); assay: Susceptibility testing of MRSA clinical isolates (n=100); assay type: cell-based; conditions: MRSA (n=100); comparators in the absence of bicarbonate
Procedure: (§5) This study included one hundred (n=100) clinical isolates of methicillin-resistant Staphylococcus aureus (MRSA) and ninety-two (n=92) clinical isolates of P. aeruginosa. All samples were collected from patients at Hamilton Health Sciences hospitals (Hamilton, Ontario, Canada). Isolates, regardless of site of infection, were selected for study if they were resistant to three or more antibiotics. The isolates were cultured on plates and subsequently tested for antimicrobial susceptibility. Initial culture and antibiotic susceptibility testing were performed by Hamilton General Hospital General Microbiology Laboratory using a VITEK 2 Automated System and its Advanced Expert System (bioMerieux) and were compliant with Clinical & Laboratory Standards Institute (CLSI) antibiotic susceptibility testing formulations. Both quantitative minimum inhibitory concentration (MIC) and CLSI breakpoints were reported for each antibiotic. Additionally, a total of 7 conjunctival-sourced ocular isolates of Streptococcus pneumoniae collected by the International Health Management Associates (IHMA) from various locations in the United States were used in the study.
(§6) Antimicrobial sensitivity of the pathogenic strains was determined in compliance with the CLSI protocol. Mueller-Hinton agar plates were used to streak out bacterial species and the direct colony suspension method for inoculum preparation was used to make a suspension of the organism in saline to the density of a McFarland 0.5 turbidity standard. Cation-adjusted Mueller-Hinton broth (CA-MHB) manufactured according to ISO technical standard was used for susceptibility testing in standard 96-well microdilution plates. All antibiotics were purchased as powders from Sigma-Aldrich Canada Co. (Oakville, Canada) and dissolved in appropriate solvent to provide stock solutions as instructed by the manufacturer. Desired test antibiotic solutions were diluted in solvent at a highest test concentration resulting in 256 μg/mL. Where sodium bicarbonate was used, aqueous sterile-filtered sodium bicarbonate solution (7.5% stock) from Sigma-Aldrich Canada Co. (Oakville, Canada) was diluted to the desired concentration in CAMHB. Plates were incubated for 18 hours at 37° C. and read at 600 nm on a Tecan, infinite M1000 PRO plate reader. In accordance with CLSI, methods with appropriate medium supplements for fastidious streptococci (2.5% lysed horse blood, Innovative Research, Inc., Novi, Mich.) were used. […] All MICs in the study were conducted in duplicate.

[8] = system: P. aeruginosa; assay: Susceptibility testing of P. aeruginosa clinical isolates (n=92); assay type: cell-based, Pseudomonas aeruginosa; conditions: P. aeruginosa (n=92); comparators in the absence of bicarbonate
Procedure: as §5, §6

[9] = antibiotic agents, MHB in the absence of sodium bicarbonate
[10] = antibiotic agents, fold shift in MIC, MHB− vs MHB+
[11] = MHB in the absence of sodium bicarbonate
[12] = E. coli, salt at 25 mM, pH adjusted to 7.4

Molecule: OB(O)O [Boric acid]
- MIC of dirithromycin in the presence of the salt [1]: 128 µg/mL
- FIC Index (with pentamidine in S. aureus) [2]: 1

Molecule: CN(C)C(=O)C(CCN1CCC(O)(c2ccc(Cl)cc2)CC1)(c1ccccc1)c1ccccc1 [loperamide]
- interaction with sodium bicarbonate (checkerboard) [3]: synergistic interactions

Molecule: Spiramycin
- MIC, E. coli, MHB+ [1]: 64 μg of antimicrobial agent/mL of buffer
- MIC, E. coli, MHB− [1, 9]: >128 μg of antimicrobial agent/mL of buffer
- Fold, E. coli [1, 10]: 8
- MIC, S. aureus, MHB− [4, 9]: 16 μg of antimicrobial agent/mL of buffer
- MIC, S. aureus, MHB+ ([4]; antibiotic agents, MHB in the presence of 25 mM sodium bicarbonate): 0.5 μg of antimicrobial agent/mL of buffer
- Fold, S. aureus [4, 10]: 16
- interaction with sodium bicarbonate (checkerboard) [3]: synergistic interactions
- interaction with sodium bicarbonate (checkerboard) [5]: synergistic interactions

Molecule: [H]/N=C(/N)N[C@H]1[C@H](O)[C@@H](O)[C@H](O[C@@H]2O[C@@H](C)[C@](O)(C=O)[C@H]2O[C@@H]2O[C@@H](CO)[C@H](O)[C@@H](O)[C@@H]2NC)[C@@H](N/C(N)=N\[H])[C@@H]1O [Streptomycin]
- MIC, E. coli, MHB+ [1]: 0.12 μg of antimicrobial agent/mL of buffer
- MIC [1, 9]: 0.5 µg/mL
- MIC, S. aureus, MHB+ [4]: 0.5 μg of antimicrobial agent/mL of buffer
- MIC [4]: 2 µg/mL
- interaction with sodium bicarbonate (checkerboard) [3]: synergistic interactions
- interaction with sodium bicarbonate (checkerboard) [5]: synergistic interactions

Molecule: C[C@@H]1O[C@@H]1P(=O)(O)O [Fosfomycin]
- effect of 25 mM sodium bicarbonate on antibacterial activity [1]: suppressed
- MIC [1, 11]: 4 µg/mL
- MIC, S. aureus, MHB+ [4]: 64
- effect of 25 mM sodium bicarbonate on antibacterial activity ([4]; S. aureus, result in words): suppressed
- MIC [4]: 16 µg/mL
- interaction with sodium bicarbonate (checkerboard) [3]: suppressed
- interaction with nigericin (checkerboard) [6]: antagonistic interactions

Molecule: O=[N+]([O-])[O-].[Na+] [Sodium nitrate]
- MIC of dirithromycin in the presence of the salt [1, 12]: 128 µg/mL
- FIC Index (with pentamidine in S. aureus) [2]: 2

Molecule: c1cc2c(cc1C1CCCCC1)c1c3n2CCN=C3CCC1 [I1]
- interaction with sodium bicarbonate (checkerboard) [5]: synergistic interactions

Molecule: CC(C)[C@@H]1NC(=O)[C@H](C)OC(=O)[C@@H](C(C)C)NC(=O)[C@@H](C(C)C)OC(=O)[C@H](C(C)C)NC(=O)[C@H](C)OC(=O)[C@@H](C(C)C)NC(=O)[C@@H](C(C)C)OC(=O)[C@H](C(C)C)NC(=O)[C@H](C)OC(=O)[C@@H](C(C)C)NC(=O)[C@@H](C(C)C)OC1=O [valinomycin]
- interaction with sodium bicarbonate (checkerboard) [5]: synergistic interactions

Molecule: CC1=CCCC2C1CCC(C)C2(C)CC/C(C)=C/Cn1c[n+](C)c2c(N)ncnc21.[Cl-] (stereo not shown) [I3]
- interaction with sodium bicarbonate (checkerboard) [5]: synergistic interactions

Molecule: O=S(=O)([O-])[O-].[Na+].[Na+] [Sodium sulfate]
- MIC of dirithromycin in the presence of the salt [1]: 128 µg/mL
- FIC Index (with pentamidine in S. aureus) [2]: 2

Molecule: [Cl-].[Na+] [Sodium chloride]
- MIC of dirithromycin in the presence of the salt [1, 12]: 128 µg/mL
- FIC Index (with pentamidine in S. aureus) [2]: 2

Molecule: O=P(O)(O)O [Sodium phosphate]
- MIC of dirithromycin in the presence of the salt [1]: >128 µg/mL
- FIC Index (with pentamidine in S. aureus) [2]: >8

Molecule: COc1c(N2C[C@@H]3CCCN[C@@H]3C2)c(F)cc2c(=O)c(C(=O)O)cn(C3CC3)c12 [Moxifloxacin]
- MIC [1, 11]: 0.0313 µg/mL
- MIC [4]: 0.125 µg/mL
- MIC90 comparison of topical ophthalmic antibiotics [7]: resistance
- MIC90 comparison of topical ophthalmic antibiotics [8]: resistance

Molecule: [F-].[Na+] [Sodium fluoride]
- MIC of dirithromycin in the presence of the salt [1, 12]: 128 µg/mL
- FIC Index (with pentamidine in S. aureus) [2]: 1

Molecule: COc1ccc(-c2n(CC(=O)OC3CC(C)CCC3C(C)C)c3ccccc3[n+]2C)cc1.[Cl-] (stereo not shown) [I2]
- interaction with sodium bicarbonate (checkerboard) [5]: synergistic interactions

Molecule: O=S(=O)(O)CCO [Isethionic acid]
- MIC of dirithromycin in the presence of the salt [1, 12]: 128 µg/mL
- FIC Index (with pentamidine in S. aureus) [2]: 2

Molecule: CC[C@H]1OC(=O)[C@H](C)[C@@H](O[C@H]2C[C@@](C)(OC)[C@@H](O)[C@H](C)O2)[C@H](C)[C@@H](O[C@@H]2O[C@H](C)C[C@H](N(C)C)[C@H]2O)[C@](C)(O)C[C@@H](C)/C(=N\OCOCCOC)[C@H](C)[C@@H](O)[C@]1(C)O [Roxithromycin]
- MIC, E. coli, MHB+ [1]: 16 μg of antimicrobial agent/mL of buffer
- MIC [1, 9]: > 128 µg/mL
- MIC, S. aureus, MHB+ [4]: 0.5 μg of antimicrobial agent/mL of buffer
- MIC [4]: 4 µg/mL
- interaction with sodium bicarbonate (checkerboard) [3]: synergistic interactions
- interaction with sodium bicarbonate (checkerboard) [5]: synergistic interactions

Molecule: [Br-].[Na+] [Sodium bromide]
- MIC of dirithromycin in the presence of the salt [1, 12]: 128 µg/mL
- FIC Index (with pentamidine in S. aureus) [2]: 2

Molecule: CC(=O)[O-].[Na+] [Sodium acetate]
- MIC of dirithromycin in the presence of the salt [1]: 64 µg/mL
- FIC Index (with pentamidine in S. aureus) [2]: 2

Molecule: C=C[C@]1(C)C[C@@H](OC(=O)CO)[C@]2(C)[C@H](C)CC[C@]3(CCC(=O)[C@H]32)[C@@H](C)[C@@H]1O [Pleuromutilin]
- MIC, E. coli, MHB+ [1]: >128 μg of antimicrobial agent/mL of buffer
- MIC [1, 9]: > 128 µg/mL
- MIC, S. aureus, MHB+ [4]: 1 μg of antimicrobial agent/mL of buffer
- MIC [4]: 1 µg/mL
